Results reported in US20230301300A1, “HERBICIDAL COMPOSITIONS” (SYNGENTA CROP PROTECTION AG, priority 2020, published 2023).

How the values were obtained:
Assay type in all cases: in vivo
[1] = test system: Amaranthus retoflexus (AMARE); test: B1 Post-Emergence Efficacy - Test 1; settings: 1000 g/ha, after 13 days, five point scale
Procedure: (§1) Seeds of a variety of test species are sown in standard soil in pots:— Solanum nigrum (SOLNI), Amaranthus retoflexus (AMARE), Setaria faberi (SETFA), Alopecurus myosuroides (ALOMY), Echinochloa crus-galli (ECHCG), Ipomoea hederacea (IPOHE), Lolium perenne (LOLPE). After 8 days cultivation (post-emergence) under controlled conditions in a glasshouse (at 24/16° C., day/night; 14 hours light; 65% humidity), the plants are sprayed with an aqueous spray solution derived from the formulation of the technical active ingredient in acetone/water (50:50) solution containing 0.5% Tween 20 (polyoxyethylene sorbitan monolaurate, CAS RN 9005-64-5). Compounds are applied at 1000 g/ha. The test plants are then grown in a glasshouse under controlled conditions in a glasshouse (at 24/16° C., day/night; 14 hours light; 65% humidity) and watered twice daily. After 13 days, the test is evaluated for the percentage damage caused to the plant. The biological activities are assessed on a five point scale (5=80-100%; 4=60-79%; 3=40-59%; 2=20-39%; 1=0-19%). A blank value in the table is indicative that the compound was not tested on that species.

[2] = test system: Echinochloa crus-galli (ECHCG); test: B1 Post-Emergence Efficacy - Test 1; settings: 1000 g/ha, after 13 days, five point scale
Procedure: as §1

[3] = test system: Ipomoea hederacea (IPOHE); test: B1 Post-Emergence Efficacy - Test 1; settings: 1000 g/ha, after 13 days, five point scale
Procedure: as §1

Lolium perenne (LOLPE) = test: B1 Post-Emergence Efficacy - Test 1; settings: 1000 g/ha, after 13 days, five point scale
Procedure: as §1

Setaria faberi (SETFA) = test: B1 Post-Emergence Efficacy - Test 1; settings: 1000 g/ha, after 13 days, five point scale
Procedure: as §1

Solanum nigrum (SOLNI) = test: B1 Post-Emergence Efficacy - Test 1; settings: 1000 g/ha, after 13 days, five point scale
Procedure: as §1

[4] = test system: Amaranthus retroflexus (AMARE); test: B2 Post-Emergence Efficacy - Test 2; settings: 15 days after application, 0-100 scale
Procedure: (§2) Seeds of a variety of test species (see Table B1) were sown in standard soil in pots. After cultivation for 12 days (post-emergence) under controlled conditions in a glasshouse (at 24/18° C. or 20/16° C., at day/night; 16 hours light; 65% humidity), the plants were sprayed with an aqueous spray solution derived from the formulation of the technical active ingredient dissolved in IF50 (see Table B2 for composition) and adjuvant (Genapol X080) was added to the spray solution at a rate of 0.2% v/v.
(§3) After application, the test plants were grown in a glasshouse under controlled conditions (as above) and watered twice daily. Herbicidal activity was evaluated 15 days after application on a 0-100 scale. The results, where 0=no damage to test plant and 100=total kill of test plant are shown below in Tables 8 to 11.

Avena fatua (AVEFA) = test: B2 Post-Emergence Efficacy - Test 2; settings: 15 days after application, 0-100 scale
Procedure: as §2, §3

Beta vulgaris (BEAVA) = test: B2 Post-Emergence Efficacy - Test 2; settings: 15 days after application, 0-100 scale
Procedure: as §2, §3

Brassica napus (BRSNN) = test: B2 Post-Emergence Efficacy - Test 2; settings: 15 days after application, 0-100 scale
Procedure: as §2, §3

Glycine max (GLXMA) = test: B2 Post-Emergence Efficacy - Test 2; settings: 15 days after application; for Herbicidal activity GLXMA: 0-100 scale; for Herbicidal activity on a 0-100 scale, GLXMA: 0=no damage, 100=total kill
Procedure: as §2, §3

[5] = test system: Ipomoea hederacea (IPOHE); test: B2 Post-Emergence Efficacy - Test 2; settings: 15 days after application, 0-100 scale
Procedure: as §2, §3

Kochia scoparia (KSHSC) = test: B2 Post-Emergence Efficacy - Test 2; settings: 15 days after application, 0-100 scale
Procedure: as §2, §3

Orysa sativa (ORYSA) = test: B2 Post-Emergence Efficacy - Test 2; settings: 15 days after application; for Herbicidal activity ORYSA: 0-100 scale; for Herbicidal activity on a 0-100 scale, ORYSA: 0=no damage, 100=total kill
Procedure: as §2, §3

Sida spinosa (SIDSP) = test: B2 Post-Emergence Efficacy - Test 2; settings: 15 days after application, 0-100 scale
Procedure: as §2, §3

Veronica persica (VERPE) = test: B2 Post-Emergence Efficacy - Test 2; settings: 15 days after application, 0-100 scale
Procedure: as §2, §3

[6] = test system: Xanthium strumarium (XANST); test: B2 Post-Emergence Efficacy - Test 2; settings: 15 days after application, 0-100 scale
Procedure: as §2, §3

Cc1nn(C)c(=O)c(-c2c(F)ccc(Cl)c2CCc2ccc(C#N)cc2)c1O [Compound 1.024, 4-[3-chloro-6-fluoro-2-[2-[4-(cyano)phenyl]ethyl]phenyl]-5-hydroxy-2,6-dimethyl-pyridazin-3-one]
percentage damage caused to the plant, AMARE [1]: 5 (5=80-100%) | percentage damage caused to the plant, ECHCG [2]: 5 (5=80-100%) | percentage damage caused to the plant, IPOHE [3]: 5 (5=80-100%) | percentage damage caused to the plant, LOLPE (Lolium perenne (LOLPE)): 5 (5=80-100%) | percentage damage caused to the plant, SETFA (Setaria faberi (SETFA)): 5 (5=80-100%) | percentage damage caused to the plant, SOLNI (Solanum nigrum (SOLNI)): 5 (5=80-100%) | Herbicidal activity AMARE ([4]; 15 g/Ha): 80 | Herbicidal activity AMARE ([4]; 30 g/Ha): 90 | Herbicidal activity AMARE ([4]; 60 g/Ha): 90 | Herbicidal activity AMARE ([4]; 125 g/Ha): 100 | Herbicidal activity AMARE ([4]; 250 g/Ha): 100 | Herbicidal activity AMARE ([4]; 500 g/Ha): 100 | Herbicidal activity AVEFA (Avena fatua (AVEFA); 15 g/Ha): 10 | Herbicidal activity AVEFA (Avena fatua (AVEFA); 30 g/Ha): 20 | Herbicidal activity AVEFA (Avena fatua (AVEFA); 60 g/Ha): 30 | Herbicidal activity AVEFA (Avena fatua (AVEFA); 125 g/Ha): 60 | Herbicidal activity AVEFA (Avena fatua (AVEFA); 250 g/Ha): 70 | Herbicidal activity AVEFA (Avena fatua (AVEFA); 500 g/Ha): 80 | Herbicidal activity BEAVA (Beta vulgaris (BEAVA); 15 g/Ha): 70 | Herbicidal activity BEAVA (Beta vulgaris (BEAVA); 30 g/Ha): 70 | Herbicidal activity BEAVA (Beta vulgaris (BEAVA); 60 g/Ha): 80 | Herbicidal activity BEAVA (Beta vulgaris (BEAVA); 125 g/Ha): 80 | Herbicidal activity BEAVA (Beta vulgaris (BEAVA); 250 g/Ha): 80 | Herbicidal activity BEAVA (Beta vulgaris (BEAVA); 500 g/Ha): 100 | Herbicidal activity BRSNN (Brassica napus (BRSNN); 15 g/Ha): 80 | Herbicidal activity BRSNN (Brassica napus (BRSNN); 30 g/Ha): 90 | Herbicidal activity BRSNN (Brassica napus (BRSNN); 60 g/Ha): 90 | Herbicidal activity BRSNN (Brassica napus (BRSNN); 125 g/Ha): 90 | Herbicidal activity BRSNN (Brassica napus (BRSNN); 250 g/Ha): 90 | Herbicidal activity BRSNN (Brassica napus (BRSNN); 500 g/Ha): 90 | Herbicidal activity GLXMA (Glycine max (GLXMA); 15 g/Ha): 70 | Herbicidal activity on a 0-100 scale, GLXMA (Glycine max (GLXMA); 15 g/Ha): 70 | Herbicidal activity GLXMA (Glycine max (GLXMA); 30 g/Ha): 80 | Herbicidal activity on a 0-100 scale, GLXMA (Glycine max (GLXMA); 30 g/Ha): 80 | Herbicidal activity GLXMA (Glycine max (GLXMA); 60 g/Ha): 90 | Herbicidal activity on a 0-100 scale, GLXMA (Glycine max (GLXMA); 60 g/Ha): 90 | Herbicidal activity GLXMA (Glycine max (GLXMA); 125 g/Ha): 90 | Herbicidal activity on a 0-100 scale, GLXMA (Glycine max (GLXMA); 125 g/Ha): 90 | Herbicidal activity GLXMA (Glycine max (GLXMA); 250 g/Ha): 100 | Herbicidal activity on a 0-100 scale, GLXMA (Glycine max (GLXMA); 250 g/Ha): 100 | Herbicidal activity GLXMA (Glycine max (GLXMA); 500 g/Ha): 100 | Herbicidal activity on a 0-100 scale, GLXMA (Glycine max (GLXMA); 500 g/Ha): 100 | Herbicidal activity IPOHE ([5]; 30 g/Ha): 100 | Herbicidal activity IPOHE ([5]; 60 g/Ha): 100 | Herbicidal activity IPOHE ([5]; 125 g/Ha): 100 | Herbicidal activity IPOHE ([5]; 250 g/Ha): 100 | Herbicidal activity IPOHE ([5]; 500 g/Ha): 100 | Herbicidal activity KCHSC (Kochia scoparia (KSHSC); 15 g/Ha): 0 | Herbicidal activity KCHSC (Kochia scoparia (KSHSC); 30 g/Ha): 0 | Herbicidal activity KCHSC (Kochia scoparia (KSHSC); 60 g/Ha): 0 | Herbicidal activity KCHSC (Kochia scoparia (KSHSC); 125 g/Ha): 10 | Herbicidal activity KCHSC (Kochia scoparia (KSHSC); 250 g/Ha): 10 | Herbicidal activity KCHSC (Kochia scoparia (KSHSC); 500 g/Ha): 20 | Herbicidal activity ORYSA (Orysa sativa (ORYSA); 15 g/Ha): 0 | Herbicidal activity on a 0-100 scale, ORYSA (Orysa sativa (ORYSA); 15 g/Ha): 0 | Herbicidal activity ORYSA (Orysa sativa (ORYSA); 30 g/Ha): 0 | Herbicidal activity on a 0-100 scale, ORYSA (Orysa sativa (ORYSA); 30 g/Ha): 0 | Herbicidal activity ORYSA (Orysa sativa (ORYSA); 60 g/Ha): 0 | Herbicidal activity on a 0-100 scale, ORYSA (Orysa sativa (ORYSA); 60 g/Ha): 0 | Herbicidal activity ORYSA (Orysa sativa (ORYSA); 125 g/Ha): 0 | Herbicidal activity on a 0-100 scale, ORYSA (Orysa sativa (ORYSA); 125 g/Ha): 0 | Herbicidal activity ORYSA (Orysa sativa (ORYSA); 250 g/Ha): 20 | Herbicidal activity on a 0-100 scale, ORYSA (Orysa sativa (ORYSA); 250 g/Ha): 20 | Herbicidal activity ORYSA (Orysa sativa (ORYSA); 500 g/Ha): 40 | Herbicidal activity on a 0-100 scale, ORYSA (Orysa sativa (ORYSA); 500 g/Ha): 40 | Herbicidal activity SIDSP (Sida spinosa (SIDSP); 15 g/Ha): 80 | Herbicidal activity SIDSP (Sida spinosa (SIDSP); 30 g/Ha): 90 | Herbicidal activity SIDSP (Sida spinosa (SIDSP); 60 g/Ha): 90 | Herbicidal activity SIDSP (Sida spinosa (SIDSP); 125 g/Ha): 100 | Herbicidal activity SIDSP (Sida spinosa (SIDSP); 250 g/Ha): 100 | Herbicidal activity SIDSP (Sida spinosa (SIDSP); 500 g/Ha): 100 | Herbicidal activity VERPE (Veronica persica (VERPE); 15 g/Ha): 80 | Herbicidal activity VERPE (Veronica persica (VERPE); 30 g/Ha): 80 | Herbicidal activity VERPE (Veronica persica (VERPE); 60 g/Ha): 90 | Herbicidal activity VERPE (Veronica persica (VERPE); 125 g/Ha): 80 | Herbicidal activity VERPE (Veronica persica (VERPE); 250 g/Ha): 100 | Herbicidal activity VERPE (Veronica persica (VERPE); 500 g/Ha): 100 | Herbicidal activity XANST ([6]; 60 g/Ha): 80 | Herbicidal activity XANST ([6]; 125 g/Ha): 80 | Herbicidal activity XANST ([6]; 500 g/Ha): 100
